Measured values from US10231954B2, “Neurodegenerative therapies” (LYTIX BIOPHARMA AS, priority 2014, dated 2019).
Read-outs that look alike come from different tables or passages of the source.

Assays:
Type in all cases: biochemical
BRK = BRK (Homo sapiens, UniProt Q13882); test: Kinase profiling BRK; conditions: read-out: residual kinase activity, BRK
Source text: (§1) Any value less that 25 is considered to be highly significant inhibition.

MAPKAP-K3 = MAPKAP-K3 (Homo sapiens, UniProt Q16644); test: Kinase profiling MAPKAP-K3; conditions: read-out: residual kinase activity, MAPKAP-K3
Sequence of MAPKAP-K3 (Q16644 whole entry, species assumed): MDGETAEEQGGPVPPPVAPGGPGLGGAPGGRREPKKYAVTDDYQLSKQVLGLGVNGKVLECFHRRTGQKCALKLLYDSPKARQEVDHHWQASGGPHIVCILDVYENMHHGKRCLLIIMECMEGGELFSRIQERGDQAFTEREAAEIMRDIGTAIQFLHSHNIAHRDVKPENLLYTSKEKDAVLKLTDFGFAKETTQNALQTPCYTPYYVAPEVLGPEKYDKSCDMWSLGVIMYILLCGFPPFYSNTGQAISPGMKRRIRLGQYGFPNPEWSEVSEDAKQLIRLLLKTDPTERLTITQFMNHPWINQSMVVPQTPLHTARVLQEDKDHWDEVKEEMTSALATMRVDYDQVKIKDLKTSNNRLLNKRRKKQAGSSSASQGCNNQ
Source text: as §1

ERK1 = ERK1 (Homo sapiens, UniProt P27361); test: Kinase profiling ERK1; conditions: for remaining activity at 100 µM: read-out: residual kinase activity, ERK1
Sequence of ERK1 (P27361 whole entry, species assumed): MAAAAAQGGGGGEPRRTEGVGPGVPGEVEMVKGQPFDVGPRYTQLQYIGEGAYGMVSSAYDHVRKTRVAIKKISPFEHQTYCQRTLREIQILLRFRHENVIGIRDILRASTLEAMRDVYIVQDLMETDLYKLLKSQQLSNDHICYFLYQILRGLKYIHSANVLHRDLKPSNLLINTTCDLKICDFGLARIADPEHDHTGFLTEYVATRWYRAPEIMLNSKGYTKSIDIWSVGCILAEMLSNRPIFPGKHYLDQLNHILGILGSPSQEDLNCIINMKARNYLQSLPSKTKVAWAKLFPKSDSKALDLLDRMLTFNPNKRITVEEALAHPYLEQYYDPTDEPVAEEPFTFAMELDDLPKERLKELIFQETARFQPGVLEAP
Source text: as §1

CHK2 = CHK2 (Homo sapiens, UniProt O96017); test: Kinase profiling CHK2; conditions: for remaining activity at 100 µM: read-out: residual kinase activity, CHK2
Sequence of CHK2 (O96017 whole entry, species assumed): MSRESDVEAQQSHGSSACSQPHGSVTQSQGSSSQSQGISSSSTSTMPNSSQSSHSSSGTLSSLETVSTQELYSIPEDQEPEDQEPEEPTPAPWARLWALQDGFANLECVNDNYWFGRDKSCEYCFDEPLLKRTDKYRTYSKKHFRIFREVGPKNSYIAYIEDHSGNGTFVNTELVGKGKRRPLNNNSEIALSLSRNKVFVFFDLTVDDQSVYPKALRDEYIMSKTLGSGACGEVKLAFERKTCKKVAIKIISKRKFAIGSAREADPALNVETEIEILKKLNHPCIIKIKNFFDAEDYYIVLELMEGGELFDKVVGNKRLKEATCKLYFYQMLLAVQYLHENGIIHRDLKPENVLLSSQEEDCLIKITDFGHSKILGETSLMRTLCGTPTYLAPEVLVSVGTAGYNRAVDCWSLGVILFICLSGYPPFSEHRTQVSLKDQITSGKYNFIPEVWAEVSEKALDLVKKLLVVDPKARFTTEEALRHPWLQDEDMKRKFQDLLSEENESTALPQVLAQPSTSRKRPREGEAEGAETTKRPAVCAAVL
Source text: as §1

EPH-B1 = target: T1, EPH-B1 (Homo sapiens, UniProt P54762); test: Kinase profiling EPH-B1; conditions: read-out: residual kinase activity, EPH-B1
T1 sequence (P54762 18-984): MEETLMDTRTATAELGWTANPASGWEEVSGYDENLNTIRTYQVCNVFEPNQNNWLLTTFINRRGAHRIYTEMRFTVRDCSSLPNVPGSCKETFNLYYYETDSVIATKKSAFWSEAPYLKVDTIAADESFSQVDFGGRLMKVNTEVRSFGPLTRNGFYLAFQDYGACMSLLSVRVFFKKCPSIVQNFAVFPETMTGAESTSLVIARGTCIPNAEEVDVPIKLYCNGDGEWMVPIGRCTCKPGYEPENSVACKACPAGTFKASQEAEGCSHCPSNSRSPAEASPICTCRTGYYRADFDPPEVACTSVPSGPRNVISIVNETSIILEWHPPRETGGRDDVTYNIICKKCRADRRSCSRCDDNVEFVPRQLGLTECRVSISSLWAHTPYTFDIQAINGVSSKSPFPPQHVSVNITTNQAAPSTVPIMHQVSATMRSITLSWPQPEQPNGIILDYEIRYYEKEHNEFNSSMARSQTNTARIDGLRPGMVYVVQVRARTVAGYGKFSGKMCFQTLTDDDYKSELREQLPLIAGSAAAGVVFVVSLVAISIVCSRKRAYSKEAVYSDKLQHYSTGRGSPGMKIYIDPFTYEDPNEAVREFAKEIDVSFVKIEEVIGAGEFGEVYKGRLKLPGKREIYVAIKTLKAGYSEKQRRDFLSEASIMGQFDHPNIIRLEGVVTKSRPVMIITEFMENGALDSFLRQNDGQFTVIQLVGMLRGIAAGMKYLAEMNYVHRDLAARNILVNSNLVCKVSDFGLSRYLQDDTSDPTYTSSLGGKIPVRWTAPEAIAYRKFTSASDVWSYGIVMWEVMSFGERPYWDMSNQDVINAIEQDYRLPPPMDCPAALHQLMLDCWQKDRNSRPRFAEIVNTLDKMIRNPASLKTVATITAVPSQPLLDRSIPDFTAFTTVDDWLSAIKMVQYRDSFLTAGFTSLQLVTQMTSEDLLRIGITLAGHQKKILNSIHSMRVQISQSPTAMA
Source text: as §1

JNK2 = JNK2 (Homo sapiens, UniProt P45984); test: Kinase profiling JNK2; conditions: for remaining activity at 100 µM: read-out: residual kinase activity, JNK2
Sequence of JNK2 (P45984 whole entry, species assumed): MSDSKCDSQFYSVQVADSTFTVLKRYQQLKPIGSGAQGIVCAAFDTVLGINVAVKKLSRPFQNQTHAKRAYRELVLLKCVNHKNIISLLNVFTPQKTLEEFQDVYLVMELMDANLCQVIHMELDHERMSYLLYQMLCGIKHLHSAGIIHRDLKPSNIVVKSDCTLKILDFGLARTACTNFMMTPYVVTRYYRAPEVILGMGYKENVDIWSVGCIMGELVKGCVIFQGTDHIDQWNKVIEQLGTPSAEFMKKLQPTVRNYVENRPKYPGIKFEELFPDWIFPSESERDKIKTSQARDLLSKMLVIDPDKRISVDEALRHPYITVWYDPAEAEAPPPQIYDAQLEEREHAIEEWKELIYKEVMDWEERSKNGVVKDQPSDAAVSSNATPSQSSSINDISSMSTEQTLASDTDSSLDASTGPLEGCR
Source text: as §1

CDK9-Cyclin T1 = CDK9-Cyclin T1 (Homo sapiens, UniProt P50750); test: Kinase profiling CDK9-Cyclin T1; conditions: read-out: residual kinase activity, CDK9-Cyclin T1
Sequence of CDK9-Cyclin T1 (P50750 whole entry): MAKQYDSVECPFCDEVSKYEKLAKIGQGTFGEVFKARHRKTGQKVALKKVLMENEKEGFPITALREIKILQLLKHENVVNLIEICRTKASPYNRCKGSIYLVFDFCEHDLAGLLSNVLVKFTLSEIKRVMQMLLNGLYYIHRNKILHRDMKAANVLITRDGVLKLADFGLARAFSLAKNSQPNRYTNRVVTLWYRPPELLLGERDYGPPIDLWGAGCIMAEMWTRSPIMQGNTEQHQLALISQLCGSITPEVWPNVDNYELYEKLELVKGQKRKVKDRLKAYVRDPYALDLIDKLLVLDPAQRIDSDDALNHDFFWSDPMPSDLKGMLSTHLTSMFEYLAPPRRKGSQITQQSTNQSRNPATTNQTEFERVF
Sequence of CDK9-Cyclin T1 (O60563 whole entry partner): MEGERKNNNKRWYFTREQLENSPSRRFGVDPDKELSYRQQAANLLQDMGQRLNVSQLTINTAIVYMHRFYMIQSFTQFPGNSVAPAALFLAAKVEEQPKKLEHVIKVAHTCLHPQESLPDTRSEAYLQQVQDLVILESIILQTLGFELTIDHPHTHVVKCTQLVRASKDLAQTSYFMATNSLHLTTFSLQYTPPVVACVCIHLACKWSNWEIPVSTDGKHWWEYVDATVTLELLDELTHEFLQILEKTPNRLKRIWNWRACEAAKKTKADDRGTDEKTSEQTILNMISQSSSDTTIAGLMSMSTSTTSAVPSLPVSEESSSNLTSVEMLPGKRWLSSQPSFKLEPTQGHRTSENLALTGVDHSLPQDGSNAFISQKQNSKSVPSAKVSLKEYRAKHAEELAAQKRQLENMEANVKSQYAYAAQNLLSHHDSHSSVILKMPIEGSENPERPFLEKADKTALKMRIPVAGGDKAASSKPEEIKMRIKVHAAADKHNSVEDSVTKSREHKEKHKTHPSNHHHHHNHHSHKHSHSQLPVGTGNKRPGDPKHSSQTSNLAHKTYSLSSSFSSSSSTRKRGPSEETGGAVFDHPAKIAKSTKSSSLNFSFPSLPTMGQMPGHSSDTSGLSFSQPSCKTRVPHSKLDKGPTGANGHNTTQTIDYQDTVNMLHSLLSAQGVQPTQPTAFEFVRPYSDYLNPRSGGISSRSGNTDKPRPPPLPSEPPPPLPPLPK
Source text: as §1

ULK2 = target: T2, ULK2 (Homo sapiens, UniProt Q8IYT8); test: Kinase profiling ULK2; conditions: read-out: residual kinase activity, ULK2
T2 sequence (Q8IYT8 1-1036): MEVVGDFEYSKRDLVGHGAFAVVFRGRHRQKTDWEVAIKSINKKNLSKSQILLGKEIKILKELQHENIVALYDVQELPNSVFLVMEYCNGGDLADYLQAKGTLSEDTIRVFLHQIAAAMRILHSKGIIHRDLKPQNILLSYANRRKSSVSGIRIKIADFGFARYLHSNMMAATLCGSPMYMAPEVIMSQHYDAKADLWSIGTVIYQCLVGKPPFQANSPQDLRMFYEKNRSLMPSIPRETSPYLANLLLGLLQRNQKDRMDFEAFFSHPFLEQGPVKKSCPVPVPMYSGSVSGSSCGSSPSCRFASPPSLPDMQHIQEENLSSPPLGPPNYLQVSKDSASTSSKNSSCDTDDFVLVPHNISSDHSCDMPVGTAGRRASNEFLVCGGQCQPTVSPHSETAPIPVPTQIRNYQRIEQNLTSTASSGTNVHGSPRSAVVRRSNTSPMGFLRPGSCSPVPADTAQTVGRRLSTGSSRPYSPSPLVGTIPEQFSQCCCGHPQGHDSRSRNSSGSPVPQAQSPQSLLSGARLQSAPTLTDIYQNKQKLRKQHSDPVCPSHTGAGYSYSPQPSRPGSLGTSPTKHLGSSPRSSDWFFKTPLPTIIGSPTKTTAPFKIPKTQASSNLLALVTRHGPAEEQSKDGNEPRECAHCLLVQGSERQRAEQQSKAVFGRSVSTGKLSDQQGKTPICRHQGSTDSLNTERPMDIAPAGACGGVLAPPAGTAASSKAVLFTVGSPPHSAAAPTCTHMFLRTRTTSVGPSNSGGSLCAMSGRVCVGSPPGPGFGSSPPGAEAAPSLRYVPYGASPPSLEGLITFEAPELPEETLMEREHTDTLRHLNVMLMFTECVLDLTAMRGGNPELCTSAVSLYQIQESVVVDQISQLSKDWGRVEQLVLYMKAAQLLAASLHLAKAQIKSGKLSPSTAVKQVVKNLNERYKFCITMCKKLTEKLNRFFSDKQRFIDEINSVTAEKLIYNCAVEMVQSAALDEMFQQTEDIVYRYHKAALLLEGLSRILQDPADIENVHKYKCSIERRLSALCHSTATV
Source text: as §1

ERK5 = ERK5 (Homo sapiens, UniProt Q13164); test: Kinase profiling ERK5; conditions: for residual kinase activity, ERK5: 100 micromolar inhibitor concentration, 100 is no change
Sequence of ERK5 (Q13164 whole entry, species assumed): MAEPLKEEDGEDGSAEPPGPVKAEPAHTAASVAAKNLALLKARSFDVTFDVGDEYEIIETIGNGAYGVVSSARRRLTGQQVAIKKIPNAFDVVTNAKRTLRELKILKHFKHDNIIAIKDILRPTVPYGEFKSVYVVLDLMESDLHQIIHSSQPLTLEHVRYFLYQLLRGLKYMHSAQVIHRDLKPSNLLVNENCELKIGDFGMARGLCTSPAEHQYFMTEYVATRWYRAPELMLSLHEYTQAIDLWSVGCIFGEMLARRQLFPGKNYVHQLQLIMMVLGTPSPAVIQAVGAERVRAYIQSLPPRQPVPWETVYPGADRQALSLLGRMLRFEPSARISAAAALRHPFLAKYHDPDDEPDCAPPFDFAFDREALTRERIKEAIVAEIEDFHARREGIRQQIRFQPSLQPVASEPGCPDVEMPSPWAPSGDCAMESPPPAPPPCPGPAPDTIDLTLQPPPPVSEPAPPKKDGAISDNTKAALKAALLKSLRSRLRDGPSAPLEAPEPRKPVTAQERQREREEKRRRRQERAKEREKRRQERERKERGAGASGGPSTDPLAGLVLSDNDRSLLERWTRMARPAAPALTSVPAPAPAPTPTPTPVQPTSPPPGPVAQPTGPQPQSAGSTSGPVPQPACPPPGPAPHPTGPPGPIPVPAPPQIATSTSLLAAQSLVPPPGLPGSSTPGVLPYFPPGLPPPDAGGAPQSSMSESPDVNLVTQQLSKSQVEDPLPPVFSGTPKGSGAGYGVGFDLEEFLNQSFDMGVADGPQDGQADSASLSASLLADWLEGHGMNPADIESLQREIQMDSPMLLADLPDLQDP
Source text: as §1

[1] = 100 micromolar inhibitor concentration, 100 is no change
[2] = 100 micromolar inhibitor, 100 = no change

Sequence of BRK (Q13882 whole entry, species assumed): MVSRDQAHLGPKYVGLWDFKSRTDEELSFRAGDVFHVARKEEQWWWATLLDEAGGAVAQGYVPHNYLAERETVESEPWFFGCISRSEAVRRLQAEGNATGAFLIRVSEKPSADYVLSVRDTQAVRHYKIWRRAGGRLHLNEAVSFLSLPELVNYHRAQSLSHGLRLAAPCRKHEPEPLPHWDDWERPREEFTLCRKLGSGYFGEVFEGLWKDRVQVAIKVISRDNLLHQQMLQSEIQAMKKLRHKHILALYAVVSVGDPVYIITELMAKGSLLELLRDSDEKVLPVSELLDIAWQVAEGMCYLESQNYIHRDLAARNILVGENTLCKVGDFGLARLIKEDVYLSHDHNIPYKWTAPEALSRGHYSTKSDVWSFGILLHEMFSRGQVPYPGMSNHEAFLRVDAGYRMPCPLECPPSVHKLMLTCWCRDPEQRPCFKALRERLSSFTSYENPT

With CC(=O)Nc1nc2cc(O)ccc2s1 [Compound 01-66, N-(5-hydroxybenzo[d]thiazol-2-yl)acetamide] the remaining activity at 100 µM (BRK) was 77%, the remaining activity at 100 µM (MAPKAP-K3) was 39% and the remaining activity at 100 µM (ERK1) was 61%. For the same compound, the remaining activity at 100 µM (CHK2) was 31%, the remaining activity at 100 µM (EPH-B1) was 93% and the remaining activity at 100 µM (JNK2) was 63%. It also gave a remaining activity at 100 µM (CDK9-Cyclin T1) of 85%.
In the case of CC(=O)Nc1nc2ccc(O)cc2s1 [Compound 01-71], the remaining activity at 100 µM (BRK; [1]) is reported as 22%, the remaining activity at 100 µM (MAPKAP-K3; [1]) is reported as 34% and the remaining activity at 100 µM (ERK1; [1]) is reported as 65%. The remaining activity at 100 µM (CHK2; [1]) was 17%, the remaining activity at 100 µM (EPH-B1; [1]) was 86% and the remaining activity at 100 µM (JNK2; [1]) was 82%. For the same compound, the remaining activity at 100 µM (CDK9-Cyclin T1; [1]) was 48%.
For CC(=O)Nc1nc2ccc(C(F)(F)F)cc2s1 [Compound 01-90], the remaining activity at 100 µM (BRK; [1]) was 99%, the remaining activity at 100 µM (MAPKAP-K3; [1]) was 101% and the remaining activity at 100 µM (ERK1; [1]) was 100%. It also gave a remaining activity at 100 µM (ULK2; [1]) of 78%, a remaining activity at 100 µM (CHK2; [1]) of 43% and a remaining activity at 100 µM (EPH-B1; [1]) of 91%. The remaining activity at 100 µM (JNK2; [1]) was 87% and the remaining activity at 100 µM (CDK9-Cyclin T1; [1]) was 26%.
Work on CC(=O)Nc1nc2ccc(C#N)cc2s1 [Compound 01-94] yielded a remaining activity at 100 µM (BRK; [1]) of 100%, a remaining activity at 100 µM (MAPKAP-K3; [1]) of 101% and a remaining activity at 100 µM (ERK1; [1]) of 97%. It also gave a remaining activity at 100 µM (ULK2; [1]) of 68%, a remaining activity at 100 µM (CHK2; [1]) of 30% and a remaining activity at 100 µM (EPH-B1; [1]) of 94%. For the same compound, the remaining activity at 100 µM (JNK2; [1]) was 82% and the remaining activity at 100 µM (CDK9-Cyclin T1; [1]) was 15%.
CC(=O)Nc1cccc(NC(=O)c2nc3ccc(O)cc3s2)c1 [Compound 03-07, N-(3-acetamidophenyl)-6-hydroxybenzo[d]thiazole-2-carboxamide] gave a remaining activity at 100 µM (BRK; [2]) of 80%, a remaining activity at 100 µM (MAPKAP-K3; [2]) of 34% and a remaining activity at 100 µM (ERK1; [2]) of 102%. It also gave a remaining activity at 100 µM (ULK2; [2]) of 81%, a remaining activity at 100 µM (CHK2; [2]) of 23% and a remaining activity at 100 µM (EPH-B1; [2]) of 104%. It also gave a remaining activity at 100 µM (JNK2; [2]) of 104%, a remaining activity at 100 µM (ERK5; 100 micromolar inhibitor, 100 = no change, read-out: residual kinase activity, ERK5) of 48% and a remaining activity at 100 µM (CDK9-Cyclin T1; [2]) of 76%.
In the case of CC(=O)Nc1cccc(C(=O)Nc2nc3ccc(O)cc3s2)c1 [Compound 03-58], the “residual kinase activity, ERK1” value (ERK1; [1]) is reported as 84, the “residual kinase activity, JNK2” value (JNK2; [1]) is reported as 99 and the “residual kinase activity, ERK5” value (ERK5) is reported as 31.
For CC(=O)NC(C)C(=O)Nc1nc2ccc(C(F)(F)F)cc2s1 (centres unmarked) [Compound 03-80], the “residual kinase activity, ERK1” value (ERK1; [1]) was 94, the “residual kinase activity, JNK2” value (JNK2; [1]) was 87 and the “residual kinase activity, ERK5” value (ERK5) was 27.
With O=C(Nc1nc2ccc(F)cc2s1)c1ccccc1 [Compound 03-92] the “residual kinase activity, CHK2” value (CHK2; [1]) was 80.
With CC(=O)Nc1nc2ccc(F)cc2s1 [Compound 03-94] the “residual kinase activity, CHK2” value (CHK2; [1]) was 74.
For COc1ccc2sc(NC(=O)c3ccccc3)nc2c1 [Compound 03-95], the “residual kinase activity, CHK2” value (CHK2; [1]) was 98.
For COc1ccc2nc(NC(=O)c3ccccc3)sc2c1 [Compound 03-98], the “residual kinase activity, CHK2” value (CHK2; [1]) was 37.
In the case of O=C(Nc1nc2ccc(C(F)(F)F)cc2s1)c1ccccc1 [Compound 03-99], the “residual kinase activity, CHK2” value (CHK2; [1]) is reported as 94.
In the case of O=C(Nc1nc2cc(O)ccc2s1)c1ccccc1 [Compound 03-102], the “residual kinase activity, CHK2” value (CHK2; [1]) is reported as 26.
COC(=O)c1cccc(C(=O)Nc2nc3ccc(C(F)(F)F)cc3s2)c1 [Compound 03-105, Methyl 3-((6-(trifluoromethyl)benzo[d]thiazol-2-yl)carbamoyl)benzoate] was tested, and the remaining activity at 100 µM (CHK2) was 89%.
With N#Cc1ccc2nc(NC(=O)c3ccccc3)sc2c1 [Compound 03-106] the “residual kinase activity, CHK2” value (CHK2; [1]) was 62.
For COC(=O)c1cccc(C(=O)Nc2nc3cc(OC)ccc3s2)c1 [Compound 03-108], the “residual kinase activity, CHK2” value (CHK2; [1]) was 65.
COC(=O)c1cccc(C(=O)Nc2nc3ccc(F)cc3s2)c1 [Compound 03-110] was tested, and the “residual kinase activity, CHK2” value (CHK2; [1]) was 51.
With COc1ccc2sc(NC(=O)c3cccc(C(N)=O)c3)nc2c1 [Compound 03-113] the “residual kinase activity, CHK2” value (CHK2; [1]) was 98.
In the case of CC(=O)Nc1ccccc1C(=O)Nc1nc2ccc(O)cc2s1 [Compound 08-39], the “residual kinase activity, ERK1” value (ERK1; [1]) is reported as 18, the “residual kinase activity, JNK2” value (JNK2; [1]) is reported as 93 and the “residual kinase activity, ERK5” value (ERK5) is reported as 47.
COc1ccc2nc(C(=O)Nc3ccccc3)sc2c1 [Compound 13-03] was tested, and the “residual kinase activity, CHK2” value (CHK2; [2]) was 92.
CC(=O)Nc1nc2ccc([N+](=O)[O-])cc2s1 [Compound 13-10] gave a remaining activity at 100 µM (CHK2; [1]) of 59%.
In the case of COc1cccc(NC(=O)Nc2nc3cc(O)ccc3s2)c1 [Compound 13-62], the “residual kinase activity, CHK2” value (CHK2; [2]) is reported as 18.
With COc1ccc2sc(NC(=O)c3ccc(NC(C)=O)cc3)nc2c1 [MS:LY-2-77] the “residual kinase activity, ERK1” value (ERK1; [1]) was 87, the “residual kinase activity, JNK2” value (JNK2; [1]) was 99 and the “residual kinase activity, ERK5” value (ERK5) was 74.
With COc1ccc2sc(NC(=O)c3cccc(NC(C)=O)c3)nc2c1 [MS:LY-2-85] the “residual kinase activity, ERK1” value (ERK1; [1]) was 86, the “residual kinase activity, JNK2” value (JNK2; [1]) was 100 and the “residual kinase activity, ERK5” value (ERK5) was 45.
With CC(=O)Nc1ccc(C(=O)Nc2nc3cc(O)ccc3s2)cc1 [MS:LY-2-87] the “residual kinase activity, ERK1” value (ERK1; [1]) was 70, the “residual kinase activity, JNK2” value (JNK2; [1]) was 105 and the “residual kinase activity, ERK5” value (ERK5) was 54.
With CC(=O)Nc1cccc(C(=O)Nc2nc3cc(O)ccc3s2)c1 [MS:LY-2-89] the “residual kinase activity, ERK1” value (ERK1; [1]) was 54, the “residual kinase activity, JNK2” value (JNK2; [1]) was 93 and the “residual kinase activity, ERK5” value (ERK5) was 32.
